ChEMBL document CHEMBL5360550 (Eur J Med Chem, 2023)
Activity calls are given as the source filed them. The rule behind the calls is not given here.

Legend:
[1] = Selectivity index, ratio of IC50 for cytotoxicity against rat L6 cells to IC50 for antiprotozoal activity against chloroquine resistant Plasmodium falciparum K1 infected in human erythrocytes; assay type: toxicity, cell-based; details: read-out: Ratio IC50
[2] = Selectivity index, ratio of IC50 for cytotoxicity against rat L6 cells to IC50 for antiprotozoal activity against long slender blood stream form Trypanosoma brucei rhodesiense STIB900; assay type: toxicity, cell-based; details: read-out: Ratio IC50
[3] = system: Trypanosoma brucei rhodesiense; assay: In vivo antiprotozoal activity against acute hemolymphatic stage Trypanosoma brucei rhodesiense STIB900 infected in NMRI mouse assessed as reduction of parasitaemia at 5 mg/kg, ip for 4 days consecutive and measured upto 60 days relative to control; assay type: functional; design: scale not given: the % may be the effect or the level left
Plasmodium falciparum = assay: Antiprotozoal activity against chloroquine resistant Plasmodium falciparum K1 infected in human erythrocytes assessed as parasite growth inhibition incubated for 48 hrs by [3H]-hypoxanthine incorporation assay based Betaplate liquid scintillation counter method; assay type: functional, organism-based; details: K1, Erythrocyte
[4] = Cytotoxicity against rat L6 cells assessed as reduction in cell viability incubated for 70 hrs by Alamar blue based microplate fluorescence assay; assay type: toxicity
[5] = system: Trypanosoma brucei rhodesiense; assay: Antiprotozoal activity against long slender blood stream form Trypanosoma brucei rhodesiense STIB900 assessed as parasite growth inhibition incubated for 70 hrs by resazurin based microplate fluorometer analysis; assay type: functional, organism-based; details: STIB900, 70 h
AT rich DNA [6] = system: AT rich DNA
Description: Binding affinity to double stranded [poly(dA-dT)2] DNA (unknown origin) minor groove assessed as increase in melting temperature by spectrophotometer analysis

AT rich DNA [7] = assay: Binding affinity to double stranded [poly(dA-dT)2] DNA (unknown origin) minor groove assessed as increase in positive induced CD signal in 360 to 400 nanometer absorption range incubated for 10 mins by circular dichroism spectroscopy; assay type: nucleic-acid assay
[8] = system: Trypanosoma brucei rhodesiense; assay: In vivo antiprotozoal activity against acute hemolymphatic stage Trypanosoma brucei rhodesiense STIB900 infected in NMRI mouse assessed as reduction of parasitaemia at 10 mg/kg, ip for 4 days consecutive and measured upto 60 days relative to control; assay type: functional; design: scale not given: the % may be the effect or the level left; details: time 4 day

`N=C(N)c1ccc(-c2ccc(-c3cc4cc(C(=N)N)ccc4[nH]3)o2)nc1` gave a selectivity ratio [1] of 8690, a selectivity ratio [2] of 8400 and an Activity ([3]; time 4 day) of 75%. The IC50 (Plasmodium falciparum) was 5.8 nM, the IC50 at 70 h [4] was 50400 nM and the IC50 [5] was 6 nM. The ΔTm (AT rich DNA [6]) was 27 °C.

With `COc1cc(C(=N)N)ccc1-c1ccc(-c2cc3ccc(C(=N)N)cc3[nH]2)o1` the selectivity ratio [2] was 283, the IC50 at 70 h [4] was 11000 nM and the IC50 [5] was 39 nM. It also gave a ΔTm (AT rich DNA [6]) of 27 °C.

Compound `N=C(N)c1ccc(-c2ccc(-c3cc4cc(C(=N)N)ccc4[nH]3)[se]2)cc1` has a selectivity ratio [1] of 5510, a selectivity ratio [2] of 7170 and an Activity ([3]; time 4 day) of 50%. For the same compound, the IC50 (Plasmodium falciparum) was 3.9 nM, the Activity (AT rich DNA [7]) was “Active” and the IC50 at 70 h [4] was 21500 nM. For the same compound, the IC50 [5] was 3 nM and the ΔTm (AT rich DNA [6]) was > 30 °C.

Work on `N=C(N)c1ccc(-c2ccc(-c3cc4ccc(C(=N)N)cc4[nH]3)o2)nc1` yielded a selectivity ratio [1] of 5440, a selectivity ratio [2] of 2050 and an Activity ([3]; time 4 day) of 75%. The IC50 (Plasmodium falciparum) was 6.4 nM, the Activity (AT rich DNA [7]) was “Active” and the IC50 at 70 h [4] was 34800 nM. For the same compound, the IC50 [5] was 17 nM and the ΔTm (AT rich DNA [6]) was 28 °C.

With `N=C(N)c1ccc(-c2ccc(-c3cc4ccc(C(=N)N)cc4[nH]3)s2)nc1` the selectivity ratio [2] was 966, the Activity ([3]; time 4.0 day) was “inactive” and the IC50 at 70 h [4] was 14500 nM. The IC50 [5] was 15 nM and the ΔTm (AT rich DNA [6]) was 29 °C.

With `N=C(N)c1ccc(-c2ccc(-c3nc4ccc(C(=N)N)cc4[nH]3)s2)cc1` the selectivity ratio [1] was 1900, the selectivity ratio [2] was 829 and the IC50 (Plasmodium falciparum) was 11.8 nM. For the same compound, the IC50 at 70 h [4] was 22400 nM, the IC50 [5] was 27 nM and the ΔTm (AT rich DNA [6]) was > 30 °C. The Activity [8] was 75%.

In the case of `N=C(N)c1ccc2cc(-c3ccc(-c4ccc(C(=N)N)nc4)o3)[nH]c2c1`, the selectivity ratio [1] is reported as 3940, the selectivity ratio [2] is reported as 2030 and the Activity ([3]; time 4.0 day) is reported as “inactive”. The IC50 (Plasmodium falciparum) was 3.6 nM, the IC50 at 70 h [4] was 14200 nM and the IC50 [5] was 7 nM. The ΔTm (AT rich DNA [6]) was 28 °C.

In the case of `N=C(N)c1ccc(-c2ccc(-c3nc4cc(C(=N)N)ccc4[nH]3)o2)cc1`, the selectivity ratio [1] is reported as 105, the selectivity ratio [2] is reported as 82 and the Activity ([3]; time 4 day) is reported as 25%. It also gave an IC50 (Plasmodium falciparum) of 95.8 nM, an IC50 at 70 h [4] of 10100 nM and an IC50 [5] of 122 nM. It also gave a ΔTm (AT rich DNA [6]) of 25 °C.

With `N=C(N)c1ccc(-c2ccc(-c3cc4cc(C(=N)N)ccc4[nH]3)s2)cc1` the selectivity ratio [1] was 6070, the selectivity ratio [2] was 2830 and the Activity ([3]; time 4 day) was 50%. For the same compound, the IC50 (Plasmodium falciparum) was 2.8 nM, the IC50 at 70 h [4] was 17000 nM and the IC50 [5] was 6 nM. For the same compound, the ΔTm (AT rich DNA [6]) was 29 °C.

In the case of `N=C(N)c1ccc(-c2ccc(-c3cc4ccc(C(=N)N)cc4[nH]3)s2)cc1`, the selectivity ratio [1] is reported as 1720, the selectivity ratio [2] is reported as 1030 and the Activity ([3]; time 4.0 day) is reported as “inactive”. The IC50 (Plasmodium falciparum) was 7.2 nM, the Activity (AT rich DNA [7]) was “Active” and the IC50 at 70 h [4] was 12400 nM. For the same compound, the IC50 [5] was 12 nM and the ΔTm (AT rich DNA [6]) was > 30 °C.

`N=C(N)c1ccc(-c2ccc(-c3cc4cc(C(=N)N)ccc4[nH]3)o2)cc1` showed a selectivity ratio [1] of 5070, a selectivity ratio [2] of 7100 and an Activity ([3]; time 4 day) of 75%. For the same compound, the IC50 (Plasmodium falciparum) was 2.8 nM, the Activity (AT rich DNA [7]) was “Active” and the IC50 at 70 h [4] was 14200 nM. For the same compound, the IC50 [5] was 2 nM and the ΔTm (AT rich DNA [6]) was 29 °C.

For `N=C(N)c1ccc(-c2ccc(-c3cc4ccc(C(=N)N)cc4[nH]3)o2)cc1`, the selectivity ratio [1] was 2800, the selectivity ratio [2] was 1080 and the Activity ([3]; time 4.0 day) was “inactive”. For the same compound, the IC50 (Plasmodium falciparum) was 4.6 nM, the Activity (AT rich DNA [7]) was “Active” and the IC50 at 70 h [4] was 12900 nM. For the same compound, the IC50 [5] was 12 nM and the ΔTm (AT rich DNA [6]) was > 30 °C.

`N=C(N)c1ccc(-c2ccc(-c3ccc(C(=N)N)cc3)o2)cc1` [FURAMIDINE] gave an Activity ([3]; time 4 day) of 25% and a ΔTm (AT rich DNA [6]) of 25 °C.

In the case of `Cc1cc(C(=N)N)ccc1-c1ccc(-c2cc3ccc(C(=N)N)cc3[nH]2)o1`, the selectivity ratio [2] is reported as 850, the Activity ([3]; time 4.0 day) is reported as “inactive” and the IC50 at 70 h [4] is reported as 5100 nM. For the same compound, the IC50 [5] was 6 nM and the ΔTm (AT rich DNA [6]) was > 30 °C.
